# Assay results reported in patent US11485701B2, “Insect repellent compounds and compositions, and methods thereof” (Iowa State University Research Foundation, Inc., priority 2016, dated 2022).
# Counter-ions that a name gives are not always drawn.
# What was measured:
# [1] = system: Northern house mosquitoes (Culex pipiens); test: Long-term spatial repellency, static air repellency chamber, filter papers air-dried 5 hours; type: in vivo; details: for pest or weed control at 0.5 %: Culex pipiens
# Experimental: (§1) Northern house mosquitoes (Culex pipiens), a primary carrier of West Nile virus in eastern North America, were obtained from an established colony in the Medical Entomology Laboratory in the Department of Entomology at Iowa State University of Science and Technology, Ames Iowa. Mosquito rearing was performed by established protocols that are maintained by the Medical Entomology Laboratory. Repellency bioassays were performed with adult female mosquitoes that were 5-7 days post-emergent. […] Mosquitoes, prior to testing, were held at 27° C., 80% relative humidity, and on a 16:8 hr light:dark photoperiod.
# (§2) Repellency bioassays were performed using a static air repellency chamber, which has been described in various publications by the Pesticide Toxicology Laboratory at Iowa State University of Science and Technology, Ames, Iowa Briefly, a 9-cm×60-cm glass tube was used to monitor the distribution of mosquitoes at 15 min, 30 min, 60 min, 90 min, 120 min, and 150 min after introducing mosquitoes into the static air repellency chamber. Treated filter papers were treated with 1 mL of 0.5% solution in acetone of the terpenoid analogs created in the lab and were exposed to ambient air for 5 hours before they were introduced into the spatial chamber for testing. This is a slight modification of the method described in Example 2, so as to evaluate the residual repellent character of these compounds on a treated surface after 5 hours. One end of the spatial chamber contained a treated filter paper, whereas the other (untreated) end of the spatial chamber was not treated with compound. Controls contained filter papers treated with acetone, the solvent used to make the 0.5% solutions. Each end of the repellency chamber was secured with a 100-mm Petri dish using celluloid tape. After securing the petri dishes with corresponding treated or untreated filter papers to the spatial chamber, mosquitoes were anesthetized with carbon dioxide, and approximately 20 female mosquitoes were placed into each repellency chamber for one replicate. The opening of the spatial repellency chamber was secured with celluloid tape to prevent their escape. Chambers were oriented in opposite directions from the previous replicate to account for any directional effect. Four replicates were performed for data analysis for both the control and treatment groups.
# Data for spatial repellency, the percentage repellency, is reported at each of the respective time points in the figures and tables mentioned below in this disclosure. The percentage spatial repellency is the examination of the distribution of mosquitoes and is calculated using the following equation: […]
# [2] = system: Northern house mosquitoes (Culex pipiens); test: Short-term spatial repellency, static air repellency chamber; type: in vivo; details: for pest or weed control at 0.5 %: Culex pipiens; for Short-term repellency at low concentration, in words: filter paper treated with 0.1%, FIG. 6
# Experimental: as §1, with “that emerged” for “that were”, “days previously.” for “days post-emergent.”
# as §2, with “Treated filter papers were treated with 1 mL of 0.5% solution in acetone of the terpenoid analogs created in the lab and were exposed to ambient air for 5 hours before they were introduced into the spatial chamber for testing. This is a slight modification of the method described in Example 2, so as to evaluate the residual repellent character of these compounds on a treated surface after 5 hours.” left out
# Data for spatial repellency, the percentage repellency, is reported at each of the respective time points in the figures and tables mentioned below. The percentage spatial repellency is the examination of the distribution of mosquitoes and is calculated using the following equation: […]
# [3] = 0.25 h, 1 mL of 0.5% solution in acetone, air-dried 5 hours, 15 min, read-out: Long-term Percentage repellency 15 min
# [4] = 1.5 h, 1 mL of 0.5% solution in acetone, air-dried 5 hours, 90 min, read-out: Long-term Percentage repellency 90 min
# [5] = 2.5 h, 1 mL of 0.5% solution in acetone, air-dried 5 hours, 150 min, read-out: Long-term Percentage repellency 150 min
# [6] = 0.25 h, filter paper, 1 mL of 0.5% solution in acetone, air-dried 15 min, 15 min after introduction, read-out: Short-term Percentage repellency 15 min
# [7] = 1.5 h, filter paper, 1 mL of 0.5% solution in acetone, air-dried 15 min, 90 min, read-out: Short-term Percentage repellency 90 min
# [8] = 2.5 h, filter paper, 1 mL of 0.5% solution in acetone, air-dried 15 min, 150 min, read-out: Short-term Percentage repellency 150 min
# [9] = 0.5% solution, air-dried 5 hours
# [10] = 1 mL of 0.5% solution in acetone
SMILES,"pest or weed control at 0.5 % [1, 3] [%]","pest or weed control at 0.5 % [1, 4] [%]","pest or weed control at 0.5 % [1, 5] [%]","pest or weed control at 0.5 % [2, 6] [%]","pest or weed control at 0.5 % [2, 7] [%]","pest or weed control at 0.5 % [2, 8] [%]",also measured
"CC(C)=CCCC(C)CCOC(=O)C(F)F (stereo not drawn) [Compound 2192, citronellyl difluoroacetate]",–,–,–,–,–,–,"pest or weed control at 0.5 % ([1]; 0.25 h, read-out: Long-term Percentage repellency 15 min): 50%; pest or weed control at 0.5 % ([1]; 1.5 h, read-out: Long-term Percentage repellency 90 min): 72.5%; pest or weed control at 0.5 % ([1]; 2.5 h, read-out: Long-term Percentage repellency 150 min): 65%; pest or weed control at 0.5 % ([2]; 0.25 h, read-out: Short-term Percentage repellency 15 min): 42.5%; pest or weed control at 0.5 % ([2]; 1.5 h, read-out: Short-term Percentage repellency 90 min): 95%; pest or weed control at 0.5 % ([2]; 2.5 h, read-out: Short-term Percentage repellency 150 min): 95%"
"CC(C)=CCCC(C)CCOC(=O)C1CC(=O)C1 (stereo not drawn) [Compound 3067, citronellyl 3-oxocyclobutanecarboxylate]",12.5,0,25,47.5,60,62.5,–
"CC(C)=CCCC(C)CCOC(=O)c1ccco1 (stereo not drawn) [Compound 2186, citronellyl 2-furoate]",25,42.5,40,–,–,–,"Short-term repellency at low concentration, in words [2]: significant levels of repellency"
"C#CCOC(=O)CC(C)CCC=C(C)C (stereo not drawn) [Compound 1060D, propargyl citronellate]",15,62.5,77.5,60,72.5,70,–
"Cc1ccc(C(C)C)cc1OC=O [Compound 1107B, carvacryl formate]",30,37.5,42.5,–,–,–,–
"O=C(OC/C=C/c1ccccc1)C1CCC1 [Compound 2039, cinnamyl cyclobutanecarboxylate]",40,57.5,60,30,–,–,–
"CC(C)=CCC/C(C)=C/COC(=O)C1CC1 [Compound 2023A, geranyl cyclopropanecarboxylate]",45,42.5,45,45,42.5,45,"Long-term repellency, in words [1, 9]: much greater than DEET; Long-term percentage repellency 60 min ([1]; 0.5% solution, air-dried 5 hours, 60 minutes): 47.5%"
"Cc1ccc(C(C)C)c(OC(=O)C2CCCCC2)c1 [Compound 2085, thymyl cyclohexanecarboxylate]",17.5,35,50,17.5,35,50,–
"CC(C)=CCCC(C)CCO (stereo not drawn) [citronellol, reference compound]",30,25,25,32.5,80,87.5,–
"C=C(C)C1CC=C(COC(=O)C2CCC2)CC1 (stereo not drawn) [Compound 2033, perillyl cyclobutanecarboxylate]",27.5,–,–,–,–,–,–
"Cc1ccc(C(C)C)c(OC(=O)C2CC2)c1 [Compound 1055A, thymol cyclopropanecarboxylate]",0,32.5,52.5,-10,87.5,95,"Short-term spatial repellency, in words [2, 10]: very effective spatial repellent; Short-term percentage repellency 30 min [2, 10]: 58%"
"Cc1ccc(C(C)C)c(OC(=O)CC(C)C)c1 [Compound 1055B, thymyl isovalerate]",0,22.5,27.5,12.5,65,77.5,–
"CC(C)=CCCC(C)CCOC(=O)CC(C)C (stereo not drawn) [Compound 1034B, citronellyl isovalerate]",30,30,32.5,17.5,77.5,82.5,–
"CC1CCC(C(C)C)C(OC(=O)C2CC2)C1 (stereo not drawn) [Compound 1033B, menthyl cyclopropanecarboxylate]",65,71.7,82.5,15,95,92.5,"Long-term repellency, in words [1, 9]: much greater than DEET; Short-term spatial repellency, in words [2, 10]: very effective spatial repellent; Short-term percentage repellency 30 min [2, 10]: 47.5%; Short-term percentage repellency 120 min ([2]; 1 mL of 0.5% solution in acetone, 120 minutes): 95%"
"CC(=O)CCC(=O)OCCC(C)CCC=C(C)C (stereo not drawn) [Compound 2183, citronellyl levulinate]",35,45,55,35,45,55,–
"CC(C)=CCCC(C)CCOC(=O)C(C)(C)C (stereo not drawn) [Compound 1036A, citronellyl pivalate]",27.5,17.5,20,25,90,92.5,–
"CC(C)=CCCC(C)CCOC(=O)C(C)C (stereo not drawn) [Compound 2204, citronellyl isobutyrate]",-5,7.5,10,25,80,90,–
"CC(C)=CCCC(C)CC(=O)OCCO (stereo not drawn) [Compound 1052S3, 2-hydroxyethyl citronellate]",37.5,65,75,–,–,–,–
"CC(C)=CCC/C(C)=C/C(=O)OCC1CC1 [Compound 2020, cyclopropylmethyl geranate]",40,45,40,–,–,–,–
"CC(=O)OCCOC(=O)C=Cc1ccccc1 [Compound 1105, 2-acetoxyethyl cinnamate]",–,–,–,30,15,10,–
"CC(C)=CCCC(C)CCOC(=O)CC1CC1 (stereo not drawn) [Compound 2229, citronellyl cyclopropylacetate]",–,–,–,–,–,–,"Short-term repellency at low concentration, in words [2]: significant levels of repellency"
